Here are results for 13 compounds from patent US10538495B2, “Modulators of indoleamine 2,3-dioxygenase” (GLAXOSMITHKLINE INTELLECTUAL PROPERTY DEVELOPMENT LIMITED, priority 2016, dated 2020).

Like-named read-outs stand apart in the source and are kept apart here.

In assay [1] the target is T1, indoleamine 2,3-dioxygenase (IDO1) (Homo sapiens, UniProt P14902). Put plainly: HeLa IDOi assay (kynurenine by mass spectrometry). Type of assay: cell-based. Further details: human epithelial HeLa cells (CCL-2; host or cells: HeLa cells stimulated with human IFN-γ. As to conditions: IFN-γ stimulated HeLa cells, 2 days, kynurenine detected by mass spectrometry; read-out: HeLa pIC50 (converted). The gist of the method: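 HeLa cells (5,000/well) stimulated with 10 nM IFN-γ and exposed to 11-point 3-fold compound dilutions (DMSO stock top typically 5 mM) for 2 days at 37 °C. Supernatant kynurenine quantified by RapidFire MS as ratio to internal standard; cytotoxicity by CellTiter-Glo ATP luminescence. Normalized to unstimulated/stimulated controls; XC50 from four-parameter fit.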
T1 sequence (P14902 whole entry): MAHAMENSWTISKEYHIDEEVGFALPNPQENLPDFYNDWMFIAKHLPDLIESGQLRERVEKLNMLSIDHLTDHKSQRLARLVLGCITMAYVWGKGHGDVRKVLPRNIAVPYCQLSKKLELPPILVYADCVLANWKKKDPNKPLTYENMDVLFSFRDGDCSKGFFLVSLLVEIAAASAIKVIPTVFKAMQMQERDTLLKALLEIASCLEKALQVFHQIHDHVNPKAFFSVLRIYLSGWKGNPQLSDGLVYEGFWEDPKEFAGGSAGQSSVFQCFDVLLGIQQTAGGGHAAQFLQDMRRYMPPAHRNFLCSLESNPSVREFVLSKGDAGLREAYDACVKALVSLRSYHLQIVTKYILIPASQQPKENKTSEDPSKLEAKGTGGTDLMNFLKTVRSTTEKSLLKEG

Assay [2] concerns the target T1, indoleamine 2,3-dioxygenase (IDO1). Put plainly: PBMC IDOi assay (kynurenine by mass spectrometry). Type of assay: cell-based. As to conditions: IFN-γ and LPS stimulated human PBMC, 2 days, kynurenine detected by mass spectrometry; read-out: PBMC pIC50 (converted). As to the method:
Brief descriptions of the cellular assays are provided following the table.
Compounds of the present invention were tested via high-throughput cellular assays utilizing detection of kynurenine via mass spectrometry and cytotoxicity as end-points. For the mass spectrometry and cytotoxicity assays, human peripheral blood mononuclear cells (PBMC) (PB003F; AllCells®, Alameda, Calif.) were stimulated with human interferon-γ (IFN-γ) (Sigma-Aldrich Corporation, St. Louis, Mo.) and lipopolysaccharide from Salmonella minnesota (LPS) (Invivogen, San Diego, Calif.) to induce the expression of indoleamine 2,3-dioxygenase (IDO1). Compounds with IDO1 inhibitory properties decreased the amount of kynurenine produced by the cells via the tryptophan catabolic pathway. Cellular toxicity due to the effect of compound treatment was measured using CellTiter-Glo® reagent (CTG) (Promega Corporation, Madison, Wis.), which is based on luminescent detection of ATP, an indicator of metabolically active cells.
In preparation for the assays, test compounds were serially diluted 3-fold in DMSO from a typical top concentration of 5 mM and plated at 0.5 μL in 384-well, polystyrene, clear bottom, tissue culture treated plates with lids (Greiner Bio-One, Kremsmünster, Austria) to generate 11-point dose response curves. Low control wells (0% kynurenine or 100% cytotoxicity) contained either 0.5 μL of DMSO in the presence of unstimulated (−IFN-γ/−LPS) PBMCs for the mass spectrometry assay or 0.5 μL of DMSO in the absence of cells for the cytotoxicity assay, and high control wells (100% kynurenine or 0% cytotoxicity) contained 0.5 μL of DMSO in the presence of stimulated (+IFN-γ/+LPS) PBMCs for both the mass spectrometry and cytotoxicity assays.
Frozen stocks of PBMCs were washed and recovered in RPMI 1640 medium (Thermo Fisher Scientific, Inc., Waltham, Mass.) supplemented with 10% v/v heat-inactivated fetal bovine serum (FBS) (Thermo Fisher Scientific, Inc., Waltham, Mass.), and 1× penicillin-streptomycin antibiotic solution (Thermo Fisher Scientific, Inc., Waltham, Mass.). The cells were diluted to 1,000,000 cells/mL in the supplemented RPMI 1640 medium. 50 μL of either the cell suspension, for the mass spectrometry assay, or medium alone, for the cytotoxicity assay, were added to the low control wells, on the previously prepared 384-well compound plates, resulting in 50,000 cells/well or 0 cells/well respectively. IFN-γ and LPS were added to the remaining cell suspension at final concentrations of 100 ng/ml and 50 ng/ml respectively, and 50 μL of the stimulated cells were added to all remaining wells on the 384-well compound plates. The plates, with lids, were then placed in a 37° C., 5% CO2 humidified incubator for 2 days.
Following incubation, the 384-well plates were removed from the incubator and allowed to equilibrate to room temperature for 30 minutes. For the cytotoxicity assay, CellTiter-Glo® was prepared according to the manufacturer's instructions, and 40 μL were added to each plate well. After a twenty minute incubation at room temperature, luminescence was read on an EnVision® Multilabel Reader (PerkinElmer Inc., Waltham, Mass.). For the mass spectrometry assay, 10 μL of supernatant from each well of the compound-treated plates were added to 40 μL of acetonitrile, containing 10 μM of an internal standard for normalization, in 384-well, polypropylene, V-bottom plates (Greiner Bio-One, Kremsmünster, Austria) to extract the organic analytes. Following centrifugation at 2000 rpm for 10 minutes, 10 μL from each well of the acetonitrile extraction plates were added to 90 μL of sterile, distilled H2O in 384-well, polypropylene, V-bottom plates for analysis of kynurenine and the internal standard on the RapidFire 300 (Agilent Technologies, Santa Clara, Calif.) and 4000 QTRAP MS (SCIEX, Framingham, Mass.). […]

Assay [3] deals with conversion of T cells into CD4+FoxP3+ Tregs. The settings on record: co-culture of DCs and naïve CD4+CD25− T cells; cited from earlier work.
The test system of the next assay is PAN02 pancreatic cells. The settings on record: orally dosed, cited from earlier work.

In the case of `Cc1ccc(CC(=O)Nc2cc(-c3ccccc3-c3nn[nH]n3)ccc2S(=O)(=O)c2ccccc2)cc1` [Example 15, N-(4-(phenylsulfonyl)-2′-(2H-tetrazol-5-yl)-[1,1′-biphenyl]-3-yl)-2-(p-tolyl)acetamide], the IC50 in assay [1] and in assay [2] was 2000 nM in each case.

Regarding `Cc1ccc(CC(=O)Nc2cc(-c3ccccc3-c3nn[nH]n3)ccc2Sc2ccccc2)cc1` [Example 10], the IC50 was 251 nM in assay [1] and 126 nM in assay [2].

Consider `CC(C)(C)Sc1ccc(-c2ccccc2-c2nn[nH]n2)cc1NC(=O)Cc1ccc(Br)cc1` [Example 40, 2-(4-Bromophenyl)-N-(4-(tert-butylthio)-2′-(2H-tetrazol-5-yl)-[1,1′-biphenyl]-3-yl)acetamide], for which the IC50 is 31.6 nM in assay [1] and 20 nM in assay [2].

`CC(C)(C)Sc1ccc(-c2ccccc2-c2nn[nH]n2)cc1NC(=O)c1ccccc1` [Example 36, N-(4-(tert-butylthio)-2′-(2H-tetrazol-5-yl)-[1,1′-biphenyl]-3-yl)benzamide]: the figures for the IC50 in assay [1] and in assay [2] were 2510 nM and 1260 nM, respectively.

`Cc1ccc(CC(=O)Nc2cc(-c3ccccc3-c3nn[nH]n3)ccc2SC(C)(C)C)cc1` [Example 1, N-(4-(tert-butylthio)-2′-(2H-tetrazol-5-yl)-[1,1′-biphenyl]-3-yl)-2-(p-tolyl)acetamide]: the results for the IC50 in assay [1] and in assay [2] were 15.8 nM and 12.6 nM, respectively.

With `Cc1cc(C)c(CC(=O)Nc2cc(-c3ccccc3-c3nn[nH]n3)ccc2SC(C)(C)C)c(C)c1` [Example 39, N-(4-(tert-butylthio)-2′-(2H-tetrazol-5-yl)-[1,1′-biphenyl]-3-yl)-2-mesitylacetamide], the IC50 in assay [1] was 2.51 nM; in assay [2], 1.58 nM.

For the compound `CC(C)(C)Sc1ncc(-c2ccccc2-c2nnn[nH]2)cc1NC(=O)Cc1ccc(C(F)(F)F)cc1` [Example 65, N-(5-(2-(1H-tetrazol-5-yl)phenyl)-2-(tert-butylthio)pyridin-3-yl)-2-(4-(trifluoromethyl)phenyl)acetamide], the IC50 was 39.8 nM in assay [1] and 25.1 nM in assay [2].

In the case of `Cc1ccc(CC(=O)Nc2cc(-c3ccccc3-c3nnnn3COC(=O)C(C)(C)C)ccc2SC(C)(C)C)cc1` [Example 56, (5-(4′-(tert-butylthio)-3′-(2-(p-tolyl)acetamido)-[1,1′-biphenyl]-2-yl)-1H-tetrazol-1-yl)methyl Pivalate], the figures for the IC50 in assay [1] and in assay [2] were 31.6 nM and 20 nM, respectively.

As to `Cc1ccc(CCC(=O)Nc2cc(-c3ccccc3-c3nn[nH]n3)ccc2SC(C)(C)C)cc1` [Example 37, N-(4-(tert-butylthio)-2′-(2H-tetrazol-5-yl)-[1,1′-biphenyl]-3-yl)-3-(p-tolyl)propanamide], the IC50 was 794 nM in assay [1] and 251 nM in assay [2].

In the case of `Cc1ccc(CC(=O)Nc2cc(-c3ccccc3-c3nnn(COP(=O)(O)O)n3)ccc2SC(C)(C)C)cc1` [Example 51, (5-(4′-(tert-Butylthio)-3′-(2-(p-tolyl)acetamido)-[1,1′-biphenyl]-2-yl)-2H-tetrazol-2-yl)methyl Dihydrogen Phosphate], the IC50 in assay [1] was 15.8 nM; in assay [2], 63.1 nM.

Consider `Cc1ccc(NC(=O)Nc2cc(-c3ccccc3-c3nn[nH]n3)ccc2SC(C)(C)C)cc1` [Example 13, 1-(4-(tert-Butylthio)-2′-(2H-tetrazol-5-yl)-[1,1′-biphenyl]-3-yl)-3-(p-tolyl)urea], for which the figures for the IC50 in assay [1] and in assay [2] were 398 nM and 79.4 nM, respectively.

As to `NS(=O)(=O)NCCNc1nonc1C(=NO)Nc1ccc(F)c(Br)c1` [INCB204360], the “conversion of T cells into CD4+FoxP3+ Tregs” value in assay [3] is reported as “blocked the conversion”. Also, the “inhibition of tumor growth” value in the assay with PAN02 pancreatic cells (PAN02 syngeneic model, immunocompetent mice) is “significant dose-dependent inhibition of tumor growth”; with PAN02 pancreatic cells (same tumor implanted in immune-deficient mice), “without effect”.

For `CC(C)c1ccc(CC(=O)Nc2cc(-c3ccccc3-c3nn[nH]n3)ccc2SC(C)(C)C)cc1` [Example 27, N-(4-(tert-butylthio)-2′-(2H-tetrazol-5-yl)-[1,1′-biphenyl]-3-yl)-2-(4-isopropylphenyl)acetamide], the IC50 in assay [1] is 3.98 nM; in assay [2], 3.16 nM.
